From the supplement of paper PMC11061612 come the findings set out here.

Common to all, as to assay: Bliss excess, mean over the matrix (fraction); higher = more synergy
For experiment [1], the system named is Hs-578-T (Breast Carcinoma). Summed up:
(§1)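 Bliss excess equals the observed combination effect minus the expected value EA + EB − EA·EB, where EA and EB are the effects of each agent alone. Combination Emax is the second-highest inhibition within the matrix. Inhibition was scaled from CellTiter-Glo 2.0 luminescence, with 0 set by vehicle wells and 1 by blank wells, after 72 hours of two-drug dosing of cells plated in 1536-well plates.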

The test system of experiment [2] is HuP-T4 (Pancreatic Carcinoma). Summed up:
as §1

The subject of experiment [3] is MFE-296 (Endometrial Carcinoma). The procedure, abridged:
as §1

For experiment [4], the system named is Ramos-2G6-4C10 (Burkitt's Lymphoma). Summed up: as §1
In the next experiment the test system is 42-MG-BA (Glioblastoma). The procedure, abridged:
as §1

Experiment [5] has as its system SNU-5 (Gastric Carcinoma). The procedure, abridged: as §1
Experiment [6] deals with KYSE-520 (Esophageal Squamous Cell Carcinoma). The procedure, abridged:
as §1

For the next experiment, the system named is NOS-1 (Osteosarcoma). The procedure, abridged:
as §1

In the next experiment the test system is T98G (Glioblastoma). The procedure, abridged: as §1
Experiment [7] concerns HO-1-N-1 (Oral Cavity Carcinoma). The procedure, abridged: as §1
The test system of experiment [8] is Daoy (Other Solid Carcinomas). Summed up: as §1
For experiment [9], the system named is MDA-MB-361 (Breast Carcinoma). The procedure, abridged: as §1

With `CC1(C)CCC(CN2CCN(c3ccc(C(=O)NS(=O)(=O)c4ccc(NCC5CCOCC5)c([N+](=O)[O-])c4)c(Oc4cnc5[nH]ccc5c4)c3)CC2)=C(c2ccc(Cl)cc2)C1` [Venetoclax] + Cc1cc2ncnn2cc1Nc1ncc2c(n1)n(C1CCOCC1)c(=O)n2C [AZD7648] (first compound max 1 µM, 7x7, partner max 10 µM), the Bliss excess is -0.0162 in experiment [1]; -0.0151 in experiment [2]; -0.0065 in experiment [3]; 0.0435 in [4]; -0.0013 with 42-MG-BA (Glioblastoma); -0.0063 in experiment [5]. The Bliss excess in [6] was -0.0284; with NOS-1 (Osteosarcoma), -0.0504; in the experiment on T98G (Glioblastoma), -0.0693; in experiment [7], 0.0318; in experiment [8] it was -0.0129; in [9] it was 0.0398.
For the compound `COc1cc2c(cc1OCCCCCOc1cc3c(cc1OC)C(=O)N1C=C(C)C[C@H]1C=N3)N=C[C@@H]1CC(C)=CN1C2=O` [SG3199] + O=C(c1cc(Cc2n[nH]c(=O)c3ccccc23)ccc1F)N1CCN(C(=O)C2CC2)CC1 [Olaparib] (first compound max 0.001 µM, 7x7, partner max 10 µM), the Bliss excess in [1] was -0.0422; in experiment [2] it was -0.0256; in experiment [3], -0.0639; in [4] it was -0.0122; in the experiment with 42-MG-BA (Glioblastoma) it was 0.0075; in experiment [5], -0.0105. Also, the Bliss excess was -0.0137 in [6]; -0.0275 with NOS-1 (Osteosarcoma); -0.0486 with T98G (Glioblastoma); -0.0138 in [7]; -0.0171 in experiment [8]; -0.035 in experiment [9].
`COc1cccc(OCCCN)c1-c1cc(Nc2cnc(C#N)cn2)n[nH]1` [Prexasertib] + CN(C)CCCOc1ccc(-c2ccc3ncc4c(c3c2)n(C2CCOCC2)c(=O)n4C)cn1 [AZD0156] (first compound max 1 µM, 7x7, partner max 1 µM): the Bliss excess in experiment [1] was 0.0101; in [2], -0.0273; in experiment [3] it was -0.0163; in experiment [4], 0.0693; in the experiment on 42-MG-BA (Glioblastoma), 0.023; in [5], -0.0703. Further, the Bliss excess in [6] was -0.0211; with NOS-1 (Osteosarcoma), 0.0551; in the experiment on T98G (Glioblastoma), 0.0132; in experiment [7], -0.0077; in [8], 0.0208; in experiment [9], 0.0014.
As to `Cc1cc2ncnn2cc1Nc1ncc2c(n1)n(C1CCOCC1)c(=O)n2C` [AZD7648] + O=C(c1cc(Cc2n[nH]c(=O)c3ccccc23)ccc1F)N1CCN(C(=O)C2CC2)CC1 [Olaparib] (first compound max 10 µM, 7x7, partner max 10 µM), the Bliss excess in experiment [1] is -0.0325; in [2], -0.0432; in experiment [3], -0.0255; in [4] it was -0.0281; with 42-MG-BA (Glioblastoma), 0.0303; in experiment [5], -0.0316. Moreover, the Bliss excess in [6] is -0.0138; in the experiment with NOS-1 (Osteosarcoma), -0.0278; in the experiment on T98G (Glioblastoma), -0.0965; in [7], 0.0099; in experiment [8], -0.0102; in experiment [9] it was -0.0204.
In the case of `Cc1cc2ncnn2cc1Nc1ncc2c(n1)n(C1CCOCC1)c(=O)n2C` [AZD7648] + CCN(CCO)CCCOc1ccc2c(Nc3cc(CC(=O)Nc4cccc(F)c4)[nH]n3)ncnc2c1 [AZD2811] (first compound max 10 µM, 7x7, partner max 1 µM), the Bliss excess in [1] is -0.0561; in [2], 0.0254; in [3], -0.0112; in [4] it was 0.188; in the experiment with 42-MG-BA (Glioblastoma), 0.0312; in experiment [5], 0.0543. For the same compound, the Bliss excess in experiment [6] was 0.0138; with NOS-1 (Osteosarcoma), -0.0036; in the experiment with T98G (Glioblastoma), 0.0116; in experiment [7] it was 0.0478; in experiment [8], 0.0083; in experiment [9], -0.0082.
With `COc1cccc(OCCCN)c1-c1cc(Nc2cnc(C#N)cn2)n[nH]1` [Prexasertib] + Cc1cc2ncnn2cc1Nc1ncc2c(n1)n(C1CCOCC1)c(=O)n2C [AZD7648] (first compound max 1 µM, 7x7, partner max 10 µM), the Bliss excess is -0.0453 in [1]; 0.0127 in experiment [2]; -0.0093 in [3]; 0.0025 in experiment [4]; -0.0574 in the experiment on 42-MG-BA (Glioblastoma); -0.0111 in experiment [5]. Further, the Bliss excess was -0.0177 in experiment [6]; 0.0514 with NOS-1 (Osteosarcoma); -0.0566 in the experiment on T98G (Glioblastoma); 0.0096 in experiment [7]; -0.009 in [8]; -0.0196 in experiment [9].
Consider `C[C@@H]1COCCN1c1cc(C2([S@](C)(=N)=O)CC2)nc(-c2ccnc3[nH]ccc23)n1` [AZD6738] + O=C(c1cc(Cc2n[nH]c(=O)c3ccccc23)ccc1F)N1CCN(C(=O)C2CC2)CC1 [Olaparib] (first compound max 10 µM, 7x7, partner max 10 µM), for which the Bliss excess in experiment [1] was -0.0002; in experiment [2], -0.0037; in experiment [3], 0.029; in experiment [4], -0.0881; with 42-MG-BA (Glioblastoma), 0.0142; in [5], -0.0464. In addition, the Bliss excess in [6] was -0.0402; in the experiment with NOS-1 (Osteosarcoma), 0.0554; in the experiment with T98G (Glioblastoma), -0.0192; in [7], -0.0196; in experiment [8], 0.0116; in [9] it was -0.0376.
As for `NC1(C(=O)N[C@@H](CCO)c2ccc(Cl)cc2)CCN(c2ncnc3[nH]ccc23)CC1` [Capivasertib] + C[C@@H]1COCCN1C2=NC(=NC(=C2)C3(CC3)[S@](=N)(=O)C)C4=C5C=CNC5=NC=C4 [AZD6738] (first compound max 10 µM, 7x7, partner max 10 µM), the Bliss excess in [1] was -0.0739; in experiment [2] it was -0.0333; in experiment [3], -0.0508; in [4], 0.0183; in the experiment on 42-MG-BA (Glioblastoma), -0.0514; in experiment [5] it was -0.0375. For the same compound, the Bliss excess in [6] is -0.0371; in the experiment with NOS-1 (Osteosarcoma), -0.0057; with T98G (Glioblastoma), -0.0557; in experiment [7] it was -0.0027; in [8] it was -0.0462; in experiment [9], -0.11.
For `CN(CCO)CC[C@H](CSc1ccccc1)Nc1ccc(S(=O)(=O)NC(=O)c2ccc(N3CCC([C@@H](O)c4ccccc4-c4ccc(Cl)cc4)CC3)cc2)cc1S(=O)(=O)C(F)(F)F` [AZD4320] + Cc1cc2ncnn2cc1Nc1ncc2c(n1)n(C1CCOCC1)c(=O)n2C [AZD7648] (first compound max 1 µM, 7x7, partner max 10 µM), the Bliss excess in experiment [1] was 0.0165; in experiment [2] it was -0.0439; in experiment [3], -0.0185; in experiment [4], 0.0379; in the experiment with 42-MG-BA (Glioblastoma), -0.0244; in experiment [5], -0.0151. Moreover, the Bliss excess was -0.0365 in experiment [6]; 0.0375 in the experiment with NOS-1 (Osteosarcoma); -0.0493 in the experiment on T98G (Glioblastoma); -0.0407 in experiment [7]; -0.042 in [8]; 0.0056 in experiment [9].
